# Experimental data: patent US9121846B2, “Daikenchuto bioassay method and quality management method using same” (TSUMURA & Co., priority 2010, dated 2015)
# Tested on: Rat pancreatic cancer cell line RIN-14B
# Experiment: Serotonin (5-HT) release test in cultured serotonin-producing cells, 5-HT measured by EIA
# Format: cell-based
# Settings: positive control, final concentration 100 μmol/L, 1 hour culture
# Procedure: The crude drug mixture of the proportions presented in Table 1 was extracted by heating at 100° C. for 1 hour with purified water used in 10 times the amount of the mixture weight, and the extract was processed into a powder to obtain a Koi-free Daikenchuto extract powder. The Koi-free Daikenchuto extract powder was used to prepare a 100 mg/mL DMSO suspension, and the suspension was mixed with an 88.8 mg/mL maltose aqueous solution at a 1:9 ratio to prepare a […] Daikenchuto solution. The solution was diluted with 0.1% BSA-Hanks buffer* to make the concentration 9 mg/mL and subjected to 15-min sonication to prepare a Daikenchuto test sample.
# Separately, a DMSO solution of 100 mmol/L AITC was prepared as a positive control sample by adding allyl isothiocyanate (AITC; Wako Pure Chemical Industries, Ltd.) to DMSO. […]
# The plate was washed three times with a washing buffer attached to the kit (300 μL/well) to remove the free components. […] After confirming the development of color, the reaction was stopped by adding a reaction stopper ([…] and the absorbance at 405 nm was measured. The results are presented in FIG. 1.
compound,measurement,value
"C=CCN=C=S [AITC, allyl isothiocyanate]",5-HT concentration compared with the control,evidently higher
